Reference: patent US20150290105A1, “COMPOSITION COMPRISING SYRINGARESINOL FOR IMPROVING THE SKIN” (AMOREPACIFIC CORPORATION, priority 2011, published 2015)

Tests used:
[1] = test system: mushroom-derived tyrosinase; test: Tyrosinase activity inhibiting effect (dopachrome formation); assay type: biochemical; conditions: 10 ppm, 37° C. 10 minutes
Description: The reaction solution was prepared by adding 500 μL of 0.1 M PBS, 15 μg of L-tyrosine and 50 μL of syringaresinol and then adding distilled water to make the final volume 1500 μL. A solution prepared through the same procedure but with Kojic acid instead of syringaresinol was used as a positive control. The concentration of all the samples used in experiment was set to 10 ppm. After adding 10 units of mushroom-derived tyrosinase to the reaction solution, followed by reaction at 37° C. for 10 minutes, the reaction was stopped by quickly transferring onto ice for 5 minutes. The synthesis rate of dopachrome produced was determined by measuring absorbance at 475 nm and tyrosinase activity inhibiting rate (%) was calculated therefrom.

collagen IV = test: UV-induced collagen breakdown in human keratinocytes (western blot); assay type: cell-based; conditions: HaCaT cells, 50 μM, UVB 30 mJ/cm^2, FIG. 6
Description: (§1) Human keratinocyte HaCaT cells were cultured in substantially the same manner as in Test Example 10.
(§2) The cultured cells were treated with trypsin to obtain a single-cell suspension. Then, the cells were distributed in a 6-well plate, with 2×10^5 cells per well, and cultured for 24 hours. Subsequently, after replacing the medium with DMEM not containing fetal bovine serum and culturing again for 24 hours, the cells were treated with 50 μM syringaresinol dissolved in DMSO. After treating for 24 hours, the cells were washed with PBS and UVB of 30 mJ/cm^2 was irradiated in PBS. After discarding the PBS, the cells were added to a medium containing syringaresinol of the same concentration. As a control group, the cells were cultured in the same manner without treating with syringaresinol. […] Then, after centrifuging at 4° C. for 10 minutes with 15,000 g, the supernatant was recovered and protein was quantitated using Bio-Rad Protein Dye ReagentTM. […] Bands on the film were scanned with PowerLook 2100 XL (UMAX) and analyzed with the image-analyzing program ImageMaster 2D Elite (Amersham Bioscience).

[2] = Keratin reducing effect on human skin (Charm View); assay type: in vivo
Description: In order to investigate whether syringaresinol can reduce the keratin of skin, syringaresinol of the same concentration as in Test Example 6 was applied on the inside of the lower arms of 50 male and female adults in their 20s and 30s and without skin diseases. 24 hours later, the reduced amount of keratin was measuring using Charm View (Moritex, Japan). The initial amount of skin keratin prior to application of the test substance measured with Charm View under a constant-temperature (24° C.), constant-humidity (40%) condition was used as a reference value, and the change in the amount of keratin was measured 24 hours later.

MMP-9 = test: UV-induced MMP-9 expression in human keratinocytes (western blot); assay type: cell-based; conditions: HaCaT cells, 50 μM, UVB 30 mJ/cm^2, FIG. 6
Description: as §1, §2

[3] = Skin whitening effect when orally administered, UV-irradiated brown guinea pig; assay type: in vivo; conditions: 1% in feed, 5 weeks, oral
Description: Minimal erythemal dose was measured after irradiating UV to guinea pigs. After grouping the guinea pigs with 10 per each group, UV of the minimal erythemal dose was irradiated once a day, for a total of 3 times. The guinea pigs were allowed free access to feed for 5 weeks. The feed contained 1% syringaresinol or 1% vitamin C (Vit C) as a positive control. Skin pigmentation was measure using a colorimeter in substantially the same manner as in Test Example 6.

TGF-β1 = TGF-β1 production in fibroblasts (ELISA); assay type: cell-based, human; conditions: HDF cells, 24 hours
Description: Human fibroblast HDF cells were cultured in substantially the same manner as in Test Example 10.
The cultured cells were treated with syringaresinol dissolved in DMSO to a concentration of 20, 50 or 100 μM for 24 hours. After 24 hours, the cell culture was recovered.
The quantity of TGF-β1 produced in the recovered cell culture was measured using the Quantikine™ high-sensitivity ELISA kit (R&D Systems, USA) according to the manufacturer's instructions. All the samples required for the measurement of the quantity of TGF-β1 were provided by the kit. First, the recovered cell culture was transferred to a 96-well microplate uniformly coated with TGF-β1 antibody and it was allowed for antigen-antibody reaction to proceed at 37° C. for 1 hour. After removing the cell culture, the wells were washed 3 times with PBS. Then, horseradish peroxidase-conjugated secondary antibody was added to each well and it was allowed for antigen-antibody reaction to proceed for 1 hour. Subsequently, after adding tetramethylbenzidine as a chromogenic substrate to each well, followed by reaction at room temperature for 15 minutes, 1 N sulfuric acid was added to stop the reaction. Then, absorbance was measured at 450 nm using a spectrophotometer. After drawing a standard curve using a standard solution, the TGF-β1 production amount in the cell culture with the test substance added was calculated from the measured absorbance.

involucrin = test: Involucrin expression promoting effect in human keratinocytes; assay type: cell-based; conditions: HaCaT cells, FIG. 5
Description: as §1
cDNA was synthesized in substantially the same manner as in Test Example 10 and the expression pattern of the filaggrin, involucrin and GAPDH genes was monitored substantially the same manner as in Test Example 10 using the synthesized cDNA and predesigned primers and probes (Applied Biosystems; […]; GAPDH, Hs99999905_ml).

COc1cc(C2OCC3C(c4cc(OC)c(O)c(OC)c4)OCC23)cc(OC)c1O (stereo not shown) [Syringaresinol, syringaresinol]
Tyrosinase activity inhibiting rate (%) [1]: 90.2%
UV-induced collagen breakdown (collagen IV): inhibits collagen breakdown
Amount of skin keratin, 24 hours later ([2]; 1% applied on lower arm, 24 hours): 11.9
Amount of skin keratin, Before application ([2]; reference value, 24° C., 40% humidity): 20.3
UV-induced MMP-9 expression (MMP-9): inhibiting the UV-induced increase of MMP-9 expression
Skin color brightness (ΔL*) [3]: 1.67 ± 0.25
TGF-β1 production amount (TGF-β1; 20 μM): 43.3 ± 1.0
TGF-β1 production amount (TGF-β1; 50 μM): 87.2 ± 4.2
TGF-β1 production amount (TGF-β1; 100 μM): 92.1 ± 5.6
Expression of involucrin (involucrin): increases the expression
